Data published in patent US9856511B2, “Protease deubiquitinating inhibitor screening” (priority 2011, dated 2018).

How the values were obtained:
human 20S proteasome = molecular target: T1, human 20S proteasome (Homo sapiens, UniProt P28072+P28074+Q99436); experiment: In vitro proteasome activity assay (Suc-LLVY-AMC, Z-LLE-AMC, Boc-LRR-AMC); type: biochemical; conditions: molar excess of b-AP15
T1 construct: purchased Boston Biochem E-360
Protocol: 20S CP contains the β1, β2 and […] proteolytic subunits responsible for caspase-like, trypsin-like and chymotrypsin-like activities of the proteasome, respectively (18).
In vitro proteasome activity assays were performed in black 96-well microtiter plates using human 20S proteasome (Boston Biochem) in reaction buffer (25 mM Hepes, 0.5 mM EDTA, 0.03% SDS) with Suc-LLVY-AMC, Z-LLE-AMC or Boc-LRRAMC used as substrates for proteasome activity. De-ubiquitinase activity assays were performed with human 19S RP (Boston Biochem) with ubiquitin-AMC as substrate. For xenograft studies a 100-μl-cell suspension containing 1×10^6 FaDu head-neck or 2×10^5 Lewis Lung Carcinoma (LLC) cells were injected subcutaneously into the flank of SCID or C57BL/6J mice. Upon tumor take mice were randomized into control or treatment groups and administered with 5 mg kg^−1 b-AP15 or vehicle. In vivo levels of apoptosis and cell death were determined from the detection of caspase cleaved and total levels of cytokeratin-18 in plasma using M30 Apoptosense® and M65 ELISA®s assays (Peviva). […]
In vitro proteasome activity assays using 20S CP (2 nM) (Boston Biochem) were performed at 37° C. in 100-μl reaction buffer (25 mM Hepes, 0.5 mM EDTA, 0.03% SDS). […] Fluorescence was monitored using Wallac Multilabel counter or Tecan Infinite M1000 equipped with 360 nm excitation and 460 nm emission filters. […]

[1] = tested on: Lewis Lung Carcinoma (LLC); experiment: Lewis Lung Carcinoma (LLC) syngenic tumors in C57BL/6J mice; type: in vivo; conditions: 5 mg/kg i.p., day on/2 day off schedule; p=<0.01
Protocol: In order to investigate the effect of b-AP15 on tumor growth in vivo, the compound was administered to mice bearing either a human tumor or mouse xenografts. FaDu head and neck carcinoma were chosen as a SCID mouse xenograft both as a model for a p53mut tumor and since this model is suitable for studies using circulating cell death biomarkers (30). Significant inhibition of FaDu tumor growth was observed following daily treatment with b-AP15 (treated/control tumor volume, T/C=0.4, p=<0.001). Similarly b-AP15 (day on/2 day off schedule) inhibited tumor growth in C57BL/6J mice bearing lung carcinomas (T/C=0.16, p=<0.01). […] To examine whether b-AP15 promotes tumor cell death in vivo, plasma levels of cytokeratin-18 (CK18) were analyzed. […] To investigate the ability of b-AP15 to inhibit proteasome deubiquitination in vivo, accumulation of poly-ubiquitin conjugates was analyzed by means of antibodies specific for K48 linked polyubiquitin chains. Histological analysis of treated tumors confirmed the accumulation of poly-ubiquitin conjugates. […]
Animal experiments were conducted in full accordance with Swedish governmental statutory regulations on animal welfare under permission from local ethical committees. […] All mice were monitored and weighed daily. […] After injection, tumor growth was measured daily with calipers and the tumor volume calculated by the formula L=W^2=0.44. […]

With C=CC(=O)N1C/C(=C\c2ccc([N+](=O)[O-])cc2)C(=O)/C(=C/c2ccc([N+](=O)[O-])cc2)C1 [b-AP15] the “caspase-like, trypsin-like and chymotrypsin-like activities of the proteasome” value (human 20S proteasome) was “do not show alteration” and the “treated/control tumor volume, T/C” value [1] was 0.16.
